For eight substances, Kd results are on record in US20150285818A1, “Switchable Reporter Enzymes for Homogenous Antibody Detection” (TECHNISCHE UNIVERSITEIT EINDHOVEN, priority 2012, published 2015).

The target in test [1] is anti-Dengue-1 antibody. The experiment in a line: Peptide binding assay using fluorescence polarization, anti-Dengue-1. Particulars: read-out: Kd, fluorescence polarization titration (Eq. 8); 10 nM fluorescein-labeled peptide titrated with antibody. (In general: In fluorescence polarisation assays a small probe gives low polarisation when free and higher when bound to something large.)

Test [2] addresses anti-HIV1-p17 antibody. The experiment in a line: Peptide binding assay using fluorescence polarization, anti-HIV1-p17.
Test [3] concerns the target anti-HA antibody. The experiment in a line: Peptide binding assay using fluorescence polarization, anti-HA.
Setting [4] is: read-out: Kd, fluorescence polarization titration (Eq. 8), 10 nM fluorescein-labeled short epitope peptide titrated with antibody.

Several values for one entry are separate records, joined by “and”; a condition that tells them apart may be missing. Equal entries are not always repeated. Where two headings read alike, the source gives them in different places. Fluorescein = fluorescein label attached to a cysteine side chain

Turning to EHKYSWKS, the Kd in test [1] came out at 70 nM.

Regarding EHKYSWKS-GGG-C(Fluorescein), the Kd in test [1] was 70 ± 13 nM.

For the substance ELDRWEKIRLRP, in test [2] (read-out: Kd (Kd1) of non-labeled peptide, competition assay (Eqs. 9 and 10), antibody and fluorescein-labeled peptide 100 nM each, titrated with non-labeled peptide), the Kd was determined as 42 ± 1 nM.

As to ELDRWEKIRLRP-GGG-C(Fluorescein), the Kd in test [2] (read-out: Kd, fluorescence polarization titration (Eq. 8), 10 nM fluorescein-labeled peptide titrated with antibody) came out at 24 ± 3 nM.

For WEKIRLR, in test [2] (setting [4]), the Kd was ~3000 nM and 3300 nM.

Regarding “WEKIRLR-GGG-C(Fluorescein) (Ac-WEKIRLRGGGC(Fluorescein)-NH2)”, in test [2] (setting [4]), the Kd was determined as 3300 ± 200 nM.

As for YPYDVPDYA, the Kd in test [3] (read-out: Kd (Kd1) of non-labeled peptide, competition assay (Eqs. 9 and 10), antibody and fluorescein-labeled peptide 10 nM each, titrated with non-labeled peptide) was 4.5 nM and ~5 nM.

Turning to YPYDVPDYA-GGG-C(Fluorescein), the Kd in test [3] (read-out: Kd, fluorescence polarization titration (Eq. 8), 2 nM fluorescein-labeled peptide titrated with antibody) came to 0.58 ± 0.22 nM.
